The results in this text go back to patent publication US12590067B2, “Herbicidal cyclohexanedione derivatives” (SYNGENTA CROP PROTECTION AG, priority 2019, dated 2026).

Common to all, as to assay: Glasshouse herbicidal test, pre- and post-emergence, percentage damage to the plant
What all share (type): in vivo

For assay [1], the system named is Alopecurus myosuroides (ALOMY). The following applies: 250 g/h, evaluated after 13 days; for ALOMY POST percentage damage caused to the plant (five-point scale): post-emergence; for ALOMY PRE percentage damage caused to the plant (five-point scale): pre-emergence. Here is the method:
(§1) Seeds of a variety of test species are sown in standard soil in pots (Lolium perenne (LOLPE), Setaria faberi (SETFA), Alopecurus myosuroides (ALOMY), Echinochloa crus-galli (ECHCG), Avena fatua (AVEFA)). After cultivation for one day (pre-emergence) or after 8 days cultivation (post-emergence) under controlled conditions in a glasshouse (at 24/16° C., day/night; 14 hours light; 65% humidity), the plants are sprayed with an aqueous spray solution derived from the formulation of the technical active ingredient in acetone/water (50:50) solution containing 0.5% Tween 20 (polyoxyethelyene sorbitan monolaurate, CAS RN 9005-64-5). Compounds are applied at 250 g/h. The test plants are then grown in a glasshouse under controlled conditions in a glasshouse (at 24/16° C., day/night; 14 hours light; 65% humidity) and watered twice daily. After 13 days for pre and post-emergence, the test is evaluated for the percentage damage caused to the plant. The biological activities are shown in the following table on a five-point scale (5=80-100%; 4=60-79%; 3=40-59%; 2=20-39%; 1=0-19%).

Assay [2] deals with Echinochloa crus-galli (ECHCG). The following applies: 250 g/h, evaluated after 13 days; for ECHCG POST percentage damage caused to the plant (five-point scale): post-emergence; for ECHCG PRE percentage damage caused to the plant (five-point scale): pre-emergence. Here is the method:
as §1

Assay [3] has as its system Avena fatua (AVEFA). The following applies: 250 g/h, evaluated after 13 days; for AVEFA POST percentage damage caused to the plant (five-point scale): post-emergence; for AVEFA PRE percentage damage caused to the plant (five-point scale): pre-emergence. Here is the method:
as §1

Assay [4] relates to Lolium perenne (LOLPE). The following applies: 250 g/h, evaluated after 13 days; for LOLPE POST percentage damage caused to the plant (five-point scale): post-emergence; for LOLPE PRE percentage damage caused to the plant (five-point scale): pre-emergence. Here is the method:
as §1

The test system of assay [5] is Setaria faberi (SETFA). Conditions: 250 g/h, evaluated after 13 days; for SETFA POST percentage damage caused to the plant (five-point scale): post-emergence; for SETFA PRE percentage damage caused to the plant (five-point scale): pre-emergence. Here is the method:
as §1

Turning to `CC#Cc1cc(Cl)c(C2C(=O)CC3(CCN(C(=O)NC(=O)c4ccccn4)CC3)CC2=O)c(OC)c1` [Compound A11], in assay [1], the “ALOMY POST percentage damage caused to the plant (five-point scale)” value (shortened to “ALOMY POST percentage damage caused”) is 5 (5=80-100%) and the “ALOMY PRE percentage damage caused to the plant (five-point scale)” value (from here on “ALOMY PRE percentage damage caused”) was 5 (5=80-100%). Also, in assay [2], the “ECHCG POST percentage damage caused to the plant (five-point scale)” value (“ECHCG POST percentage damage caused” below) is recorded as 5 (5=80-100%) and the “ECHCG PRE percentage damage caused to the plant (five-point scale)” value (“ECHCG PRE percentage damage caused” below) is 5 (5=80-100%). Further, in assay [3], the “AVEFA POST percentage damage caused to the plant (five-point scale)” value (shortened to “AVEFA POST percentage damage caused”) was 5 (5=80-100%) and the “AVEFA PRE percentage damage caused to the plant (five-point scale)” value (from here on “AVEFA PRE percentage damage caused”) is recorded as 3 (3=40-59%). In assay [4], the “LOLPE POST percentage damage caused to the plant (five-point scale)” value (“LOLPE POST percentage damage caused” below) was 5 (5=80-100%) and the “LOLPE PRE percentage damage caused to the plant (five-point scale)” value (“LOLPE PRE percentage damage caused” below) was 5 (5=80-100%). In assay [5], the “SETFA POST percentage damage caused to the plant (five-point scale)” value (shortened to “SETFA POST percentage damage caused”) is listed as 5 (5=80-100%) and the “SETFA PRE percentage damage caused to the plant (five-point scale)” value (from here on “SETFA PRE percentage damage caused”) is 5 (5=80-100%).

Regarding `CC#Cc1cc(Cl)c(C2C(=O)CC3(CCN(C(=O)CC#N)CC3)CC2=O)c(OC)c1` [Compound A12], in assay [1], the “ALOMY POST percentage damage caused” value was 5 (5=80-100%) and the “ALOMY PRE percentage damage caused” value was 5 (5=80-100%). Also, in assay [2], the “ECHCG POST percentage damage caused” value is given as 5 (5=80-100%) and the “ECHCG PRE percentage damage caused” value is on record as 5 (5=80-100%). Further, in assay [3], the “AVEFA POST percentage damage caused” value is reported as 5 (5=80-100%) and the “AVEFA PRE percentage damage caused” value is 5 (5=80-100%). Moreover, in assay [4], the “LOLPE POST percentage damage caused” value is 5 (5=80-100%) and the “LOLPE PRE percentage damage caused” value was 5 (5=80-100%). In addition, in assay [5], the “SETFA POST percentage damage caused” value is reported as 5 (5=80-100%) and the “SETFA PRE percentage damage caused” value was 5 (5=80-100%).

Consider `COc1cc(-c2ccc(C#N)cn2)cc(Cl)c1C1C(=O)CC2(CCN(C(C)=O)CC2)CC1=O` [Compound A13], for which, in assay [1], the “ALOMY POST percentage damage caused” value is given as 5 (5=80-100%) and the “ALOMY PRE percentage damage caused” value is 3 (3=40-59%). In assay [2], the “ECHCG POST percentage damage caused” value is 5 (5=80-100%) and the “ECHCG PRE percentage damage caused” value was 5 (5=80-100%). Further, in assay [3], the “AVEFA POST percentage damage caused” value is 5 (5=80-100%) and the “AVEFA PRE percentage damage caused” value was 2 (2=20-39%). Besides, in assay [4], the “LOLPE POST percentage damage caused” value is on record as 5 (5=80-100%) and the “LOLPE PRE percentage damage caused” value is listed as 1 (1=0-19%). For the same molecule, in assay [5], the “SETFA POST percentage damage caused” value is 5 (5=80-100%) and the “SETFA PRE percentage damage caused” value is listed as 2 (2=20-39%).

As for `CC#Cc1cc(Cl)c(C2C(=O)CC3(CCN(C(C)=O)CC3)CC2=O)c(Cl)c1` [Compound A14], in assay [1], the “ALOMY POST percentage damage caused” value was 5 (5=80-100%) and the “ALOMY PRE percentage damage caused” value is reported as 5 (5=80-100%). In assay [2], the “ECHCG POST percentage damage caused” value is reported as 5 (5=80-100%) and the “ECHCG PRE percentage damage caused” value is reported as 5 (5=80-100%). Also, in assay [3], the “AVEFA POST percentage damage caused” value is given as 5 (5=80-100%) and the “AVEFA PRE percentage damage caused” value is 5 (5=80-100%). For the same molecule, in assay [4], the “LOLPE POST percentage damage caused” value is given as 5 (5=80-100%) and the “LOLPE PRE percentage damage caused” value is listed as 5 (5=80-100%). Moreover, in assay [5], the “SETFA POST percentage damage caused” value is 5 (5=80-100%) and the “SETFA PRE percentage damage caused” value is listed as 5 (5=80-100%).

Consider `CC#Cc1cc(Cl)c(C2C(=O)CC3(CCN(C(=O)CC#N)CC3)CC2=O)c(Cl)c1` [Compound A15], for which, in assay [1], the “ALOMY POST percentage damage caused” value is listed as 5 (5=80-100%) and the “ALOMY PRE percentage damage caused” value was 5 (5=80-100%). Further, in assay [2], the “ECHCG POST percentage damage caused” value was 5 (5=80-100%) and the “ECHCG PRE percentage damage caused” value is 5 (5=80-100%). For the same molecule, in assay [3], the “AVEFA POST percentage damage caused” value is listed as 5 (5=80-100%) and the “AVEFA PRE percentage damage caused” value is 5 (5=80-100%). In assay [4], the “LOLPE POST percentage damage caused” value is recorded as 5 (5=80-100%) and the “LOLPE PRE percentage damage caused” value is 5 (5=80-100%). For the same molecule, in assay [5], the “SETFA POST percentage damage caused” value was 5 (5=80-100%) and the “SETFA PRE percentage damage caused” value is on record as 5 (5=80-100%).

As for `CC#Cc1cc(Cl)c(C2C(=O)CC3(CCN(C(=O)C(F)F)CC3)CC2=O)c(Cl)c1` [Compound A16], in assay [1], the “ALOMY POST percentage damage caused” value is reported as 5 (5=80-100%) and the “ALOMY PRE percentage damage caused” value is 5 (5=80-100%). Also, in assay [2], the “ECHCG POST percentage damage caused” value is 5 (5=80-100%) and the “ECHCG PRE percentage damage caused” value is recorded as 5 (5=80-100%). Also, in assay [3], the “AVEFA POST percentage damage caused” value is on record as 5 (5=80-100%) and the “AVEFA PRE percentage damage caused” value is 5 (5=80-100%). In assay [4], the “LOLPE POST percentage damage caused” value is recorded as 5 (5=80-100%) and the “LOLPE PRE percentage damage caused” value was 5 (5=80-100%). Moreover, in assay [5], the “SETFA POST percentage damage caused” value is given as 5 (5=80-100%) and the “SETFA PRE percentage damage caused” value is recorded as 5 (5=80-100%).

On to `CC#Cc1cc(Cl)c(C2C(=O)CC3(CCN(C(=O)NC(=O)c4ccccn4)CC3)CC2=O)c(Cl)c1` [Compound A17], for which, in assay [1], the “ALOMY POST percentage damage caused” value was 2 (2=20-39%) and the “ALOMY PRE percentage damage caused” value is 2 (2=20-39%). In addition, in assay [2], the “ECHCG POST percentage damage caused” value is on record as 5 (5=80-100%) and the “ECHCG PRE percentage damage caused” value is 3 (3=40-59%). In assay [3], the “AVEFA POST percentage damage caused” value was 5 (5=80-100%) and the “AVEFA PRE percentage damage caused” value is reported as 2 (2=20-39%). Also, in assay [4], the “LOLPE POST percentage damage caused” value is reported as 5 (5=80-100%) and the “LOLPE PRE percentage damage caused” value was 2 (2=20-39%). Further, in assay [5], the “SETFA POST percentage damage caused” value is reported as 5 (5=80-100%) and the “SETFA PRE percentage damage caused” value is reported as 4 (4=60-79%).

On to `CC#Cc1cc(Cl)c(C2C(=O)CC3(CCN(C(=O)COC(F)F)CC3)CC2=O)c(Cl)c1` [Compound A18], for which, in assay [1], the “ALOMY POST percentage damage caused” value is 5 (5=80-100%) and the “ALOMY PRE percentage damage caused” value is 5 (5=80-100%). In addition, in assay [2], the “ECHCG POST percentage damage caused” value is listed as 5 (5=80-100%) and the “ECHCG PRE percentage damage caused” value was 5 (5=80-100%). Besides, in assay [3], the “AVEFA POST percentage damage caused” value is 5 (5=80-100%) and the “AVEFA PRE percentage damage caused” value is given as 5 (5=80-100%). Besides, in assay [4], the “LOLPE POST percentage damage caused” value is given as 5 (5=80-100%) and the “LOLPE PRE percentage damage caused” value was 5 (5=80-100%). In assay [5], the “SETFA POST percentage damage caused” value is recorded as 5 (5=80-100%) and the “SETFA PRE percentage damage caused” value is given as 5 (5=80-100%).

In the case of `COc1cc(-c2ccc(C#N)cn2)cc(Cl)c1C1C(=O)CC2(CCN(C(=O)C3CC3)CC2)CC1=O` [Compound A35], in assay [1], the “ALOMY POST percentage damage caused” value was 5 (5=80-100%) and the “ALOMY PRE percentage damage caused” value is reported as 5 (5=80-100%). In assay [2], the “ECHCG POST percentage damage caused” value is recorded as 5 (5=80-100%) and the “ECHCG PRE percentage damage caused” value is on record as 5 (5=80-100%). In assay [3], the “AVEFA POST percentage damage caused” value is listed as 5 (5=80-100%) and the “AVEFA PRE percentage damage caused” value is given as 5 (5=80-100%). In addition, in assay [4], the “LOLPE POST percentage damage caused” value is reported as 5 (5=80-100%) and the “LOLPE PRE percentage damage caused” value is recorded as 5 (5=80-100%). For the same molecule, in assay [5], the “SETFA POST percentage damage caused” value is reported as 5 (5=80-100%) and the “SETFA PRE percentage damage caused” value is listed as 5 (5=80-100%).

For `CC#Cc1cc(C)c(C2C(=O)CC3(CCN(C(C)=O)CC3)CC2=O)c(CC)c1` [Compound A47], in assay [1], the “ALOMY POST percentage damage caused” value is reported as 5 (5=80-100%) and the “ALOMY PRE percentage damage caused” value was 5 (5=80-100%). For the same molecule, in assay [2], the “ECHCG POST percentage damage caused” value is on record as 5 (5=80-100%) and the “ECHCG PRE percentage damage caused” value is recorded as 5 (5=80-100%). In addition, in assay [3], the “AVEFA POST percentage damage caused” value is on record as 5 (5=80-100%) and the “AVEFA PRE percentage damage caused” value was 5 (5=80-100%). For the same molecule, in assay [4], the “LOLPE POST percentage damage caused” value is 5 (5=80-100%) and the “LOLPE PRE percentage damage caused” value is listed as 5 (5=80-100%). In assay [5], the “SETFA POST percentage damage caused” value is given as 5 (5=80-100%) and the “SETFA PRE percentage damage caused” value is 5 (5=80-100%).
